Experimental data published in patent US8759373B2, “Cyanoisoquinoline compounds and methods of use thereof” (Fibrogen, Inc., priority 2006, dated 2014).

Test system: mouse erythropoietin
Experiment: Plasma erythropoietin levels in mice after IV dosing (mouse erythropoietin QUANTIKINE ELISA)
Format: in vivo, Male Swiss Webster mice
Details: blood 4 hours post IV dosing, same conditions and concentration
Experimental: Compounds were tested for activity using the following assay. Compounds were dissolved in aqueous solution containing twice as much sodium hydroxide, mole-for-mole, as compound and dextrose as tonicity agent. Male Swiss Webster mice were dosed by tail vein injection with the compound, and blood samples were collected into EDTA and heparin 4 hours post IV dosing. The samples were analyzed using a mouse erythropoietin QUANTIKINE ELISA kit (R&D Systems Inc., Minneapolis Minn.) according to the manufacturer's instructions. […] Table 1 below illustrates the fold difference (i.e., the level of improvement) between erythropoietin levels achieved by compounds of the invention compared to erythropoietin levels achieved by compounds having the same structure except the cyano group at the C-1 position is replaced as shown below, tested under the same conditions and at the same concentration.

[1] = comparator: same structure with —Cl in place of cyano at C-1, tail vein injection
[2] = comparator: same structure with —CH3 in place of cyano at C-1, tail vein injection
[3] = comparator: same structure with —H in place of cyano at C-1, tail vein injection

SMILES | Fold Difference (erythropoietin levels vs. comparative compound) [1] [×] | Fold Difference (erythropoietin levels vs. comparative compound) [2] [×] | Fold Difference (erythropoietin levels vs. comparative compound) [3] [×] | other results
N#Cc1nc(C(=O)NCC(=O)O)c(O)c2ccccc12 [Example 1, [(1-Cyano-4-hydroxy-isoquinoline-3-carbonyl)-amino]-acetic acid] | 4.7 |  |  | 
Cc1nc2ccc(Oc3ccc4c(C#N)nc(C(=O)NCC(=O)O)c(O)c4c3)cc2s1 [Example 39, {[1-Cyano-4-hydroxy-6-(2-methyl-benzothiazol-6-yloxy)-isoquinoline-3-carbonyl]-amino}-acetic acid] |  | 178 |  | 
N#Cc1nc(C(=O)NCC(=O)O)c(O)c2cc(Oc3ccccc3)ccc12 [Example 12, [(1-Cyano-4-hydroxy-6-phenoxy-isoquinoline-3-carbonyl)-amino]-acetic acid] | 449 |  |  | Fold Difference (erythropoietin levels vs. comparative compound) (comparator: same structure with —Br in place of cyano at C-1, tail vein injection): 362×
N#Cc1nc(C(=O)NCC(=O)O)c(O)c2ccc(Cc3ccccc3)cc12 [Example 22, [(7-Benzyl-1-cyano-4-hydroxy-isoquinoline-3-carbonyl)-amino]-acetic acid] |  |  | 26 | 
CN(C)c1nc2cc(Oc3ccc4c(C#N)nc(C(=O)NCC(=O)O)c(O)c4c3)ccc2o1 [Example 40, {[1-Cyano-6-(2-dimethylamino-benzooxazol-5-yloxy)-4-hydroxy-isoquinoline-3-carbonyl]-amino}-acetic acid] |  |  | 81 | 
COc1cccc(Oc2cccc3c(O)c(C(=O)NCC(=O)O)nc(C#N)c23)c1 [Example 20, {[1-Cyano-4-hydroxy-8-(3-methoxy-phenoxy)-isoquinoline-3-carbonyl]-amino}-acetic acid] |  |  | 23 | 
N#Cc1nc(C(=O)NCC(=O)O)c(O)c2c(Oc3ccc(F)cc3)cccc12 [Example 23, {[1-Cyano-5-(4-fluoro-phenoxy)-4-hydroxy-isoquinoline-3-carbonyl]-amino}-acetic acid] |  |  | 277 | 
N#Cc1nc(C(=O)NCC(=O)O)c(O)c2cccc(Oc3ccccc3)c12 [Example 9, [(1-Cyano-4-hydroxy-8-phenoxy-isoquinoline-3-carbonyl)-amino]-acetic acid] |  | 2.4 |  | 
N#Cc1nc(C(=O)NCC(=O)O)c(O)c2ccc(Oc3ccc(F)cc3)cc12 [Example 6, {[1-Cyano-7-(4-fluoro-phenoxy)-4-hydroxy-isoquinoline-3-carbonyl]-amino}-acetic acid] | 31 |  |  | 
N#Cc1nc(C(=O)NCC(=O)O)c(O)c2ccc(Oc3ccccc3)cc12 [Example 3, [(1-Cyano-4-hydroxy-7-phenoxy-isoquinoline-3-carbonyl)-amino]-acetic acid] |  | 2.5 |  | 
